Values quoted from earlier work as cited in PMC8451327, “Paradoxical Augmentation of Experimental Spondyloarthritis by RORC Inhibition in HLA-B27 Transgenic Rats” (Frontiers in Immunology, 2021).

Tests used:
intestinal inflammation = test system: intestinal inflammation; parameters: method as in PMID 30972425
normal mice = test system: normal mice; parameters: method as in PMID 30972425
[1] = test system: psoriatic arthritis (PsA)
[2] = test system: ankylosing spondylitis (AS)

Compound: COc1ccc2c(n1)CCN(C(=O)C1CC(CC(=O)O)C1)[C@H]2C(=O)Nc1cc(F)c2c(c1)CCC2(C)C (some centres unmarked) [TAK-828F]
- Gene expression of IL17A, IL17F and IL-22 (intestinal inflammation): suppressed/decreased
- Intestinal inflammation (intestinal inflammation): suppressed
- Th17 and Th17/Th1 cell population in mesenteric lymph nodes (intestinal inflammation): significantly reduced
- Numbers of Th17 cells and ILC3s in the lamina propria (normal mice): did reduce

Compound: ixekizumab: interleukin-17A specific monoclonal antibody
- Clinical efficacy in PsA [1]: proven clinical efficacy
- Clinical efficacy in AS [2]: proven clinical efficacy

Compound: Secukinumab: anti-IL-17A mAb
- Signs and symptoms of psoriatic arthritis [1]: reduced
- Signs and symptoms of ankylosing spondylitis [2]: reduced
